Values joined by “and” are separate entries in the source; they are usually repeats but may differ in a detail not shown here. Identical values can stand only once. Like-named read-outs stand apart in the source and are kept apart here. Marks after values point to notes of the source that are not given here.
How the values were obtained:
[1] = cited from earlier work
[2] = Incubations with rhesus monkey hepatic S9
[3] = Incubations with guinea pig hepatic S9
[4] = format: in vitro ADME
[5] = rat; ref Hutzler JM, Cerny MA, Yang YS et al. (2014); cited from earlier work
[6] = Incubations with mouse hepatic S9
[7] = Incubations with cynomolgus monkey hepatic S9
[8] = Incubations with human hepatic S9; conditions: for CLint scaled at 1 μM: both
[9] = Incubations with minipig hepatic S9
Allometric scaling = assay: Allometric scaling; parameters: species or system human; conditions: for SSS Human Predicted S9 CLint: exponent 0.75
[10] = Incubations with rat hepatic S9
[11] = mouse; ref Hutzler JM, Cerny MA, Yang YS et al. (2014); cited from earlier work
[12] = cynomolgus monkey; ref Hutzler JM, Cerny MA, Yang YS et al. (2014); cited from earlier work
in vitro [13] = conditions: male, CD-1, mouse, s9, pH 7.4, CLint +NADPH
in vitro [14] = conditions: male, Sprague-Dawley, rat, s9, pH 7.4, CLint +NADPH
in vitro [15] = conditions: male, rhesus monkey
[16] = male, Hartley, guinea pig, pH 7.4
[17] = male, rhesus monkey, pH 7.4
in vitro [18] = conditions: male, Hartley, guinea pig
in vitro [19] = conditions: male, Gottingen, minipig, s9, pH 7.4, CLint +NADPH
in vitro [20] = conditions: male, cynomolgus monkey
[21] = male, Gottingen, minipig, 1 μM, pH 7.4
[22] = male, cynomolgus monkey, pH 7.4
[23] = both, human, pH 7.4
[24] = male, CD-1, mouse, 1 μM, pH 7.4
[25] = male, Sprague-Dawley, rat, 1 μM, pH 7.4
in vitro [26] = conditions: both, human

For CN1CCC(Nc2ncc3ncnc(Nc4ccc(F)c(Cl)c4)c3n2)CC1 [BIBX1382], the “CLp (plasma clearance)” value ([1]; human, ref Hutzler JM, Cerny MA, Yang YS et al. (2014)) is listed as 25–55^¶ mL/min/kg, the “Fm,AO Method A (fraction metabolized by AO)” value ([2]; rhesus monkey hepatic S9, method A (eq. 4)) is listed as 0.94 and the “Fm,AO Method B (fraction metabolized by AO)” value ([2]; rhesus monkey hepatic S9, method B (eq. 5), values > 1 assumed equal to 1) is listed as 0.86. For the same compound, the “E (estimated hepatic extraction ratio)” value ([2]; rhesus monkey, E = CLHEP/QH from hepatic S9 (+NADPH)) was 0.72, the “Fm,AO Method A (fraction metabolized by AO)” value ([3]; guinea pig hepatic S9, method A (eq. 4)) was 0.65 and the “Fm,AO Method B (fraction metabolized by AO)” value ([3]; guinea pig hepatic S9, method B (eq. 5), values > 1 assumed equal to 1) was 0.73. The “E (estimated hepatic extraction ratio)” value ([3]; guinea pig, E = CLHEP/QH from hepatic S9 (+NADPH)) was 0.54, the “E (estimated hepatic extraction ratio), across species” value ([4]; human, monkey, and minipig S9) was 0.72 – 0.83 and the “CLp (plasma clearance)” value [5] was 55^¶ mL/min/kg. The CLint scaled at 1 μM ([6]; male, CD-1, mouse, s9, pH 7.4, CLint (intrinsic clearance) in hepatic S9, mouse hepatic S9, in the presence of NADPH, Table 1, triplicate, 2–3 experiments) was 33.2 ± 7.1 mL/min/kg, the “E (estimated hepatic extraction ratio)” value ([6]; mouse, E = CLHEP/QH from hepatic S9 (+NADPH)) was 0.27 and the “Fm,AO Method A (fraction metabolized by AO)” value ([7]; cynomolgus monkey hepatic S9, method A (eq. 4)) was 1. For the same compound, the “Fm,AO Method B (fraction metabolized by AO)” value ([7]; cynomolgus monkey hepatic S9, method B (eq. 5), values > 1 assumed equal to 1) was 1^#, the “Fm,AO (fraction metabolized by AO)” value ([7]; cynomolgus monkey hepatic S9, methods A and B taken together (data from Table 3)) was 1.0 and the “E (estimated hepatic extraction ratio)” value ([7]; cynomolgus monkey, E = CLHEP/QH from hepatic S9 (+NADPH)) was 0.80. For the same compound, the CLint scaled at 1 μM ([8]; human, s9, pH 7.4, CLint (intrinsic clearance) in hepatic S9, human hepatic S9, in the presence of NADPH, Table 1, triplicate, 2–3 experiments) was 80.2 ± 9.61 mL/min/kg, the CLint scaled at 1 μM ([8]; human, s9, pH 7.4, CLint +NADPH +Hyd, human hepatic S9 containing NADPH and hydralazine (50 μM)) was 5.83 ± 1.22 mL/min/kg and the CLint scaled at 1 μM ([8]; human, s9, pH 7.4, CLint −NADPH +Hyd, human hepatic S9 containing hydralazine (50 μM) without NADPH) was 3.93 ± 1.75 mL/min/kg. For the same compound, the CLint scaled at 1 μM ([8]; human, s9, pH 7.4, CLint −NADPH, human hepatic S9 without NADPH) was 69.6 ± 2.1 mL/min/kg, the “Fm,AO Method A (fraction metabolized by AO)” value ([8]; human hepatic S9, method A (eq. 4)) was 0.92 and the “Fm,AO Method B (fraction metabolized by AO)” value ([8]; human hepatic S9, method B (eq. 5), values > 1 assumed equal to 1) was 0.92. The “Fm,AO (fraction metabolized by AO)” value ([8]; human hepatic S9, methods A and B taken together (data from Table 3)) was 0.92, the “E (estimated hepatic extraction ratio)” value ([8]; human, E = CLHEP/QH from hepatic S9 (+NADPH)) was 0.79 and the CLint scaled at 1 μM ([9]; male, Gottingen, minipig, s9, pH 7.4, CLint (intrinsic clearance) in hepatic S9, minipig hepatic S9, in the presence of NADPH, Table 1, triplicate, 2–3 experiments) was 134 ± 5.69 mL/min/kg. The “Fm,AO Method A (fraction metabolized by AO)” value ([9]; minipig hepatic S9, method A (eq. 4)) was 0.85, the “Fm,AO Method B (fraction metabolized by AO)” value ([9]; minipig hepatic S9, method B (eq. 5), values > 1 assumed equal to 1) was 0.96 and the “E (estimated hepatic extraction ratio)” value ([9]; minipig, E = CLHEP/QH from hepatic S9 (+NADPH)) was 0.83. The “fold-error of human S9 CLint predicted by SSS” value (Allometric scaling; SSS from guinea pig) was “outside of 3-fold-error”, the “SSS Human Predicted S9 CLint” value (Allometric scaling; single-species scaling from cynomolgus monkey S9 CLint) was 88.7 mL/min/kg and the “SSS Human Predicted S9 CLint” value (Allometric scaling; single-species scaling from mouse S9 CLint) was 4.3 mL/min/kg. The “SSS Human Predicted S9 CLint” value (Allometric scaling; single-species scaling from rat S9 CLint) was 7.5 mL/min/kg, the “SSS Human Predicted CLp” value (Single-species scaling; single-species scaling from literature cynomolgus monkey CLp) was 56 mL/min/kg and 56.0 mL/min/kg and the “SSS Human Predicted CLp” value (Single-species scaling; single-species scaling from literature mouse CLp) was 7.2 mL/min/kg. For the same compound, the “SSS Human Predicted CLp” value (Single-species scaling; single-species scaling from literature rat CLp) was 13.4 mL/min/kg, the CLint scaled at 1 μM ([10]; male, Sprague-Dawley, rat, s9, pH 7.4, CLint (intrinsic clearance) in hepatic S9, rat hepatic S9, in the presence of NADPH, Table 1, triplicate, 2–3 experiments) was 30.7 ± 3.56 mL/min/kg and the “Fm,AO Method A (fraction metabolized by AO)” value ([10]; rat hepatic S9, method A (eq. 4)) was 0.09. The “Fm,AO Method B (fraction metabolized by AO)” value ([10]; rat hepatic S9, method B (eq. 5), values > 1 assumed equal to 1) was 0.69, the “Fm,AO (fraction metabolized by AO)” value ([10]; rat hepatic S9, methods A and B taken together (data from Table 3)) was ≤ 0.69 and the “CLint +NADPH +Hyd” value ([10]; rat hepatic S9 containing NADPH and hydralazine (50 μM)) was 25.1 ± 6.29 mL/min/kg. For the same compound, the “CLint +NADPH” value ([10]; rat hepatic S9 containing NADPH, Table 3 data set, triplicate) was 27.6 ± 0.995 mL/min/kg, the “E (estimated hepatic extraction ratio)” value ([10]; rat, E = CLHEP/QH from hepatic S9 (+NADPH)) was 0.30 and the “CLHEP (hepatic clearance)” value ([10]; rat, well-stirred model from S9 CLint (+NADPH), uncorrected for fraction unbound) was 21.3 ± 1.73 mL/min/kg. The “CLp (plasma clearance)” value [11] was 55^¶ mL/min/kg and the “CLp (plasma clearance)” value [12] was 118^¶ mL/min/kg.
For Nc1nc(OCc2ccccc2)c2[nH]cnc2n1 [O^6-benzylguanine], the “Human Plasma Clearance” value ([1]; i.v., ref Dolan ME, Roy SK, Fasanmade AA, et al. (1998)) is listed as 14.5^# mL/min/kg, the CLint scaled at 1 μM (in vitro [13]) is listed as 15.5 ± 2.48 mL/min/kg and the CLint scaled at 1 μM (in vitro [14]) is listed as 6.59 ± 0.664 mL/min/kg. For the same compound, the CLint scaled at 1 μM (in vitro [15]; s9, pH 7.4, CLint +NADPH) was 19.5 ± 2.05 mL/min/kg, the CLint scaled at 1 μM (in vitro [15]; s9, pH 7.4, CLint −NADPH) was 21.3 ± 1.52 mL/min/kg and the “Fm,AO, across species” value ([4]; all species except rat, mouse, and minipig) was ≥ 0.70. The “E (estimated hepatic extraction ratio), across species” value ([4]; human, cynomolgus, and guinea pig hepatic S9) was “approximately 0.5”, the “E (estimated hepatic extraction ratio), across species” value ([4]; rat, mouse, minipig hepatic S9) was “approximately 0.1” and the “CLHEP (hepatic clearance)” value ([16]; 1 μM) was 30.3 ± 1.11 mL/min/kg. For the same compound, the “E (estimated hepatic extraction ratio)” value ([16]; 1 μM) was 0.50, the “Fm,AO Method A (fraction metabolized by AO)” value ([16]; s9, 1 μM) was 0.74 and the “Fm,AO Method B (fraction metabolized by AO)” value ([16]; s9, 1 μM) was 0.83. The “CLHEP (hepatic clearance)” value ([17]; 1 μM) was 15.0 ± 1.75 mL/min/kg, the “E (estimated hepatic extraction ratio)” value ([17]; 1 μM) was 0.34 and the “Fm,AO Method A (fraction metabolized by AO)” value ([17]; s9, 1 μM) was 1. The “Fm,AO Method B (fraction metabolized by AO)” value ([17]; s9, 1 μM) was 1^#, the CLint scaled at 1 μM (in vitro [18]; s9, pH 7.4, CLint +NADPH) was 58.7 ± 4.65 mL/min/kg and the CLint scaled at 1 μM (in vitro [18]; s9, pH 7.4, CLint +NADPH +Hyd) was 15 ± 2.14 mL/min/kg. The CLint scaled at 1 μM (in vitro [18]; s9, pH 7.4, CLint −NADPH) was 48.7 ± 5.15 mL/min/kg, the “fold-error of human S9 CLint predicted by SSS” value (Allometric scaling; SSS from minipig) was “outside of 3-fold-error” and the CLint scaled at 1 μM (in vitro [19]) was 4.68 ± 2.2 mL/min/kg. For the same compound, the CLint scaled at 1 μM (in vitro [20]; s9, pH 7.4, CLint +NADPH) was 35.6 ± 5.1 mL/min/kg, the CLint scaled at 1 μM (in vitro [20]; s9, pH 7.4, CLint −NADPH) was 33.5 ± 3.84 mL/min/kg and the “CLHEP (hepatic clearance)” value [21] was 3.79 ± 1.04 mL/min/kg. The “E (estimated hepatic extraction ratio)” value [21] was 0.14, the “CLHEP (hepatic clearance)” value ([22]; 1 μM) was 21.4 ± 2.28 mL/min/kg and the “E (estimated hepatic extraction ratio)” value ([22]; 1 μM) was 0.49. The “Fm,AO Method A (fraction metabolized by AO)” value ([22]; s9, 1 μM) was 1, the “Fm,AO Method B (fraction metabolized by AO)” value ([22]; s9, 1 μM) was 0.94 and the “CLHEP (hepatic clearance)” value ([23]; 1 μM) was 9.62 ± 0.593 mL/min/kg. The “E (estimated hepatic extraction ratio)” value ([23]; 1 μM) was 0.46, the “Fm,AO Method A (fraction metabolized by AO)” value ([23]; s9, 1 μM) was 0.70 and the “Fm,AO Method B (fraction metabolized by AO)” value ([23]; s9, 1 μM) was 0.83. The “CLHEP (hepatic clearance)” value [24] was 16.6 ± 4.51 mL/min/kg, the “E (estimated hepatic extraction ratio)” value [24] was 0.18 and the “CLHEP (hepatic clearance)” value [25] was 7.40 ± 1.61 mL/min/kg. For the same compound, the “E (estimated hepatic extraction ratio)” value [25] was 0.11, the CLint scaled at 1 μM (in vitro [26]; s9, pH 7.4, CLint +NADPH) was 17.8 ± 3.05 mL/min/kg and the CLint scaled at 1 μM (in vitro [26]; s9, pH 7.4, CLint +NADPH +Hyd) was 5.37 ± 1.16 mL/min/kg. The CLint scaled at 1 μM (in vitro [26]; s9, pH 7.4, CLint −NADPH) was 14.8 ± 1.98 mL/min/kg.

Reference: publication PMC6207370 (Xenobiotica; the fate of foreign compounds in biological …, 2017)
